Where a name gives a salt, the structure may show the parent alone.
Experiments:
C57BL/6 mice = assay: Delay fear conditioning after microinjection to CA1; type: in vivo, mouse; conditions: 5 μM to CA1
From the text: Mice were anesthetized under 2% isoflurane, using an induction box (HME109, Highland Medical Equipment). They were placed in a stereotaxic device (Kopf Stereotaxic Alignment System, model 1900) under continuous 1% isoflurane anesthesia. Guide cannulas were implanted bilaterally to CA1 (from bregma: −1.9 mm AP, ±1.4 mm ML, −1.6 mm DV), cemented to the skull and fitted with 28-gauge dummy cannulas extending 0.2 mm beyond the tip of the 1.2 mm guide cannulas. The mice were allowed at least 7 days of recovery before experimentation. The QR2 inhibitor YB-808 was dissolved in DMSO and further diluted in saline to a final DMSO concentration of 0.1%. YB-537 was dissolved in saline (0.9%). A total of 1 μl of 5 μM of either compound or vehicle was infused bilaterally to CA1, via a 28-gauge infusion cannula projecting 0.4 mm (drug delivery depth bregma: −1.6 mm DV) beyond the guide cannula, connected by polyethylene tubing to a 10 μl syringe (Hamilton) over the course of 1 min. The injection cannula was kept for 60 s inside the guide cannula in order prevent osmotic seepage of the doses upward through the cannula tract. Twenty minutes following the injection, animals underwent delay fear conditioning. Following experimentation, animals were sacrificed, brains were excised and sectioned in coronal sections, and cannula implantation was validated by imaging. […]

HEK293 cells = assay: DCFDA ROS measurement in HEK293 cells after H2O2 insult; type: cell-based; conditions: HEK293, 2 mM H2O2, 3 h
Description: FIGS. 8A-8C include vertical bar graphs showing QR2 inhibition reduces QR2 activity and ROS following induction of oxidative stress in HEK293 cells. (8A) QR2 activity is seen and is inhibited within HEK293 cells, amongst others, as measured by the rate of fluorescent co-factor oxidation. (8B) HEK293 cells seeded at 25μ 10^3 cells/well in 96-well plates were treated with 2 mM H2O2 with or without increasing doses or QR2 inhibitors for 3 h. Following incubation, the cells were stained with DCFDA for 45 min, and ROS levels were measured using a fluorimeter with ex/em 485/535 nm. N=3. (8C) ROS was measured in HCT cells, and similarly to HEK293, is reduced following QR2 inhibition. […] Data presented as mean±SEM. *p<0.05, ***p<0.0005.
The cells were harvested and resuspended in 1% clear medium (DMEM—with no phenol red, supplemented with 1% FBS, 1% L-Glutamine and 1% Penicillin-Streptomycin). A sterile poly-L-lysine-coated Nunc black, 96-well, clear flat-bottomed plate (Thermo Fisher Scientific) was seeded with 25,000 cells in 100 μL per well and incubated overnight. The next day, the medium was removed, and the wells carefully washed with PBS. […] The plate was then incubated in the dark at 37° C. for 3 h, before reading in a Tecan M200 Pro florescence microplate reader, using wavelengths Ex/Em=485 nm/535 nm.

QR2 = target: T1, QR2 (Homo sapiens, UniProt P16083); assay: Cellular thermal shift assay (CETSA) of QR2 in HEK293T cells; type: cell-based; set-up: endogenous in cells; host or cells: HEK293T
T1 sequence (P16083 1-231): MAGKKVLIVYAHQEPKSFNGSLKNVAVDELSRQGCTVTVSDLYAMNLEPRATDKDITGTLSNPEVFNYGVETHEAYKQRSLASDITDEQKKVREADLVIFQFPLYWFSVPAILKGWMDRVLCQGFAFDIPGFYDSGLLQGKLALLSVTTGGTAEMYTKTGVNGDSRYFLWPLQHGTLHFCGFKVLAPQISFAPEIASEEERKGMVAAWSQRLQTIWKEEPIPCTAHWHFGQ
Description: The CETSA assay was performed as described (Miettinen and Björklund, 2014) with some modifications. Briefly, HEK293T cells were trypsinized (Biological Industries), washed in PBS (Sigma-Aldrich), and then suspended in PBS containing protease inhibitor cocktail (Roche). The suspended cells were then divided into two Eppendorf tubes and were treated with either: a compound or DMSO (Sigma-Aldrich) for 1 h at 37° C. under shaking. Following treatment, each sample was divided into PCR tubes (100 μL/tube) and subjected to a temperature gradient (ranging from 63 to 80° C.) for 3 minutes. Cell lysates were obtained by 3-cycles of freeze-thaw using liquid nitrogen and a thermal block set to 25° C. Samples were then centrifuged at 15,000 rpm at 4° C. for 20 min and were subsequently analyzed by western blot targeting QR2 (1:100, Santa Cruz; sc-271665). The isothermal dose response fingerprint (ITDRF) experiments were done using a constant temperature of 73° C. Band intensities were normalized to the highest concentration and superoxide dismutase 1 (SOD1) levels (1:200, Santa Cruz; sc-17767). Analysis of the results were performed according to Jafari et al., (2014) using GraphPad Prism software.
To establish direct target engagement, as well as cell membrane permeability, a cellular thermal shift assay (CETSA) was carried out (see methods), using the leading compounds YB-537, YB-800, and YB-808. Following 1 h preincubation with 5 μM of each of the compounds, or vehicle, thermal aggregation curves (Tagg) of QR2 expressed in HEK293T were measured in increasing temperatures. […] Based on the Tagg curves, the inventors selected 73° C. for isothermal dose-response fingerprint (IDTRF) experiments (FIG. 2B).

SMILES | baseline freezing (C57BL/6 mice) | ROS levels after ROS insult (DCFDA) (HEK293 cells) | thermal stability of QR2 (thermal aggregation curve) versus vehicle (QR2; 5 μM, 1 h preincubation) | EC50 (QR2; CETSA at 73° C., read-out: EC50 of QR2 stabilization (isothermal dose-response fingerprint))
Cc1ccc(-c2cn3cccc(C)c3n2)cc1S(=O)(=O)N1CCNCC1 [YB-537, 8-methyl-2-(4-methyl-3-(piperazin-1-ylsulfonyl)phenyl)imidazo[1,2-a]pyridine hydrochloride] | 3.595±1.244% | – | – | –
Cc1cccn2cc(-c3cccc(S(=O)(=O)N4CCC(C)CC4)c3)nc12 [YB-800] | – | reduced in a dose dependent manner | shifts of thermal stability | 34 nM

Reference: patent US20240228481A1, “NOVEL SULFONAMIDE SERIES OF QR2 INHIBITORS TO TACKLE OXIDATIVE STRESS AND COGNITIVE DECLINE” (CARMEL HAIFA UNIVERSITY ECONOMIC CORPORATION LTD., priority 2021, published 2024)
